For the experiment, the target named is GLP-1 Receptor (Homo sapiens, UniProt P43220). The experiment can be described thus: GLP-1R agonist cAMP stimulation assay (HEK293/GLP1R/CRE-LUC cells, Cisbio cAMP dynamic 2 kit). The note with it: Table 3, HEK293/GLP1R/CRE-LUC cells, 30 min. The format is cell-based. The protocol: Activation of GLP-1 receptor is known to stimulate cyclic AMP (cAMP) production in cells which indicates primary coupling to the G as subunit of the G protein heterotrimeric complex.
To optimize functional activity directed toward G as coupling, a HEK293/CRE-Luc cell line developed by HDB stably expressing the GLP-1 Receptor was used. 200× concentration of compound working solutions were prepared (Agilent Technologies Bravo) with ½ log serial dilution in 384-well Echo LDV plate (Labcyte, CatOLP-0200). 50 nL/well 200× concentration of compound working solutions were moved to 384-well white low volume plate (Greiner, Cat4784075) using Labcyte ECH0550.1×10^5 cells/mL HEK293/GLP1R/CRE-LUC (HD Biosciences) cell suspensions prepared with assay buffer (DPBS containing 0.5 mM IBMX (Sigma, Cat15879) and 0.10 BSA (GENVIEW, Cat4FA016-100g)), 10 uL cell suspensions were added to each well of previous generated assay plate which already contains 50 n^1 compound at 200 xconcentration using ThermioFisher Multidrop Combi (1000 cells/well). Seal the plate and incubate at 37 with […] for 30 m.
After incubation the cAMP assay signal was generated using cAMP dynamic 2 Kit (Cisbio). 5 μL cAMP-d2 working solution was added to each well, followed with 5 L Anti-cAMP antibody-cryptate working solution added to each well using ThermoFisher Multidrop Combi. Incubate at room temperature for 1 hour protected from light. Read the fluorescence at 665 and 615 nm with Reader PerkinElmer EnVision. % oActivity=100%×(mean RLU of test sample−mean RLU of vehicle control)/(mean RLU of MAX control−mean RLU of vehicle control)

Each structure is given as a SMILES string.

One may read the EC50 as the concentration that produces a half-maximal response. A low value points to an effect from little substance.

Sequence of GLP-1 Receptor (P43220 24-463, species assumed): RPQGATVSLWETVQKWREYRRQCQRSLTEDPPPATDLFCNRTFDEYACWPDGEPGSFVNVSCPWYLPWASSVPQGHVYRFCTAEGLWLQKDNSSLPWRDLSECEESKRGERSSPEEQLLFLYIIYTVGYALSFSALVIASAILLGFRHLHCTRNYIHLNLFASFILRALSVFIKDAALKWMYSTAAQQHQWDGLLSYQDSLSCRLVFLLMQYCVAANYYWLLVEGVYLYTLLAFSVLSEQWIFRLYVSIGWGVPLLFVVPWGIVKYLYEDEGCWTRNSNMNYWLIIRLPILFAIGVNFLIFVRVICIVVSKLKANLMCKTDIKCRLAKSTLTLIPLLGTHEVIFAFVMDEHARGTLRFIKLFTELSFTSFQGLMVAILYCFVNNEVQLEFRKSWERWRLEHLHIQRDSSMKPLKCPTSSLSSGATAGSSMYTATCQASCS

Consider `Cc1cc(-n2nc3c(c2-n2ccn(-c4ccc(CS(C)(=N)=O)cc4F)c2=O)[C@H](C)N(C(=O)c2cc4cc(C5CCOCC5)ccc4n2[C@@]2(c4noc(=O)[nH]4)C[C@@H]2C)CC3)cc(C)c1F` (single isomer, unassigned) [Compound 174], for which the EC50 turned out to be 0.067 nM.
With `Cc1cc(-n2nc3c(c2-n2ccn(-c4ccc(CS(C)(=N)=O)cc4F)c2=O)[C@H](C)N(C(=O)c2cc4cc(C5CCOCC5)ccc4n2[C@@]2(c4noc(=O)[nH]4)C[C@@H]2C)CC3)cc(C)c1F` (single isomer, unassigned) [Compound 175] the figure was 0.025 nM; with `Cc1cc(-n2nc3c(c2-n2ccn(-c4ccc(C5(S(C)(=N)=O)CC5)cc4)c2=O)[C@H](C)N(C(=O)c2cc4cc(C5CCOCC5)ccc4n2[C@@]2(c4noc(=O)[nH]4)C[C@@H]2C)CC3)cc(C)c1F` (single isomer, unassigned) [Compound 176], 0.024 nM; with `Cc1cc(-n2nc3c(c2-n2ccn(-c4ccc(C5(S(C)(=N)=O)CC5)cc4)c2=O)[C@H](C)N(C(=O)c2cc4cc(C5CCOCC5)ccc4n2[C@@]2(c4noc(=O)[nH]4)C[C@@H]2C)CC3)cc(C)c1F` (single isomer, unassigned) [Compound 177], 0.026 nM.
Next, `Cc1cc(-n2nc3c(c2-n2ccn(-c4ccc(S(=N)(=O)CC5CC5)cc4F)c2=O)[C@H](C)N(C(=O)c2cc4cc(C5CCOCC5)ccc4n2[C@@]2(c4noc(=O)[nH]4)C[C@@H]2C)CC3)cc(C)c1F` (single isomer, unassigned) [Compound 178]: 0.094 nM; `Cc1cc(-n2nc3c(c2-n2ccn(-c4ccc(C5CCS(=N)(=O)CC5)cc4)c2=O)[C@H](C)N(C(=O)c2cc4cc(C5CCOCC5)ccc4n2[C@@]2(c4noc(=O)[nH]4)C[C@@H]2C)CC3)cc(C)c1F` (single isomer, unassigned) [Compound 182]: 0.077 nM.
For the compound `Cc1cc(-n2nc3c(c2-n2ccn(-c4ccc(S(=N)(=O)CC5CC5)cc4F)c2=O)[C@H](C)N(C(=O)c2cc4cc([C@H]5CCOC(C)(C)C5)ccc4n2[C@@]2(c4noc(=O)[nH]4)C[C@@H]2C)CC3)cc(C)c1F` (single isomer, unassigned) [Compound 184], it took 0.01 nM to reach a half-maximal effect (EC50).
Next, `Cc1cc(-n2nc3c(c2-n2ccn(-c4ccc5c(c4F)CCN=S5(C)=O)c2=O)[C@H](C)N(C(=O)c2cc4cc([C@H]5CCOC(C)(C)C5)ccc4n2[C@@]2(c4noc(=O)[nH]4)C[C@@H]2C)CC3)cc(C)c1F` (single isomer, unassigned) [Compound 185]: 0.016 nM; `Cc1cc(-n2nc3c(c2-n2ccn(-c4ccc5c(c4F)CCN=S5(C)=O)c2=O)[C@H](C)N(C(=O)c2cc4cc([C@H]5CCOC(C)(C)C5)ccc4n2[C@@]2(c4noc(=O)[nH]4)C[C@@H]2C)CC3)cc(C)c1F` (single isomer, unassigned) [Compound 186]: 0.0047 nM.
With `Cc1cc(-n2nc3c(c2-n2ccn(-c4ccc5c(c4F)CN=S5(C)=O)c2=O)[C@H](C)N(C(=O)c2cc4cc([C@H]5CCOC(C)(C)C5)ccc4n2[C@@]2(c4noc(=O)[nH]4)C[C@@H]2C)CC3)cc(C)c1F` (single isomer, unassigned) [Compound 187], the 50% effective concentration (EC50) came to 0.01 nM.
With `Cc1cc(-n2nc3c(c2-n2ccn(-c4ccc5c(c4F)CN=S5(C)=O)c2=O)[C@H](C)N(C(=O)c2cc4cc([C@H]5CCOC(C)(C)C5)ccc4n2[C@@]2(c4noc(=O)[nH]4)C[C@@H]2C)CC3)cc(C)c1F` (single isomer, unassigned) [Compound 188] the figure was 0.017 nM; with `Cc1cc(-n2ccn(-c3c4c(nn3-c3cc(C)c(F)c(C)c3)CCN(C(=O)c3cc5cc([C@H]6CCOC(C)(C)C6)ccc5n3[C@@]3(c5noc(=O)[nH]5)C[C@@H]3C)[C@H]4C)c2=O)c(F)cc1S(=N)(=O)C1CC1` (single isomer, unassigned) [Compound 189], 0.047 nM.
Next, `Cc1cc(-n2ccn(-c3c4c(nn3-c3cc(C)c(F)c(C)c3)CCN(C(=O)c3cc5cc([C@H]6CCOC(C)(C)C6)ccc5n3[C@@]3(c5noc(=O)[nH]5)C[C@@H]3C)[C@H]4C)c2=O)c(F)cc1S(=N)(=O)C1CC1` (single isomer, unassigned) [Compound 190]: 0.026 nM.

Values taken from patent US12291529B2, “Heterocyclic GLP-1 agonists” (Gasherbrum Bio, Inc., priority 2023, dated 2025).
